Data as given in US10130615B2, “Benzomorphan analogs and the use thereof” (priority 2014, dated 2018).

Tests used:
μ-opioid receptor [1] = molecular target: T1, μ-opioid receptor (Homo sapiens, UniProt P35372); assay: cell-based; parameters: purchased Perkin Elmer, Shelton, Conn; conditions: U2OS cells; for Emax: read-out: β-Arr2 μ Emax; for EC50: read-out: β-Arr2 μ EC50
μ-opioid receptor [2] = molecular target: T1, μ-opioid receptor; assay: μ-opioid receptor GTPγS functional assay, U2OS cells; conditions: for Emax: read-out: GTPγS μ Emax
κ-opioid receptor [3] = molecular target: T2, κ-opioid receptor (Homo sapiens, UniProt P41145); assay: κ-opioid receptor GTPγS functional assay, U2OS cells; type: biochemical; parameters: expressed in transfected cells; host or cells: U-2 OS; conditions: U2OS cells; for EC50: read-out: GTPγS κ EC50
T2 sequence (P41145 whole entry): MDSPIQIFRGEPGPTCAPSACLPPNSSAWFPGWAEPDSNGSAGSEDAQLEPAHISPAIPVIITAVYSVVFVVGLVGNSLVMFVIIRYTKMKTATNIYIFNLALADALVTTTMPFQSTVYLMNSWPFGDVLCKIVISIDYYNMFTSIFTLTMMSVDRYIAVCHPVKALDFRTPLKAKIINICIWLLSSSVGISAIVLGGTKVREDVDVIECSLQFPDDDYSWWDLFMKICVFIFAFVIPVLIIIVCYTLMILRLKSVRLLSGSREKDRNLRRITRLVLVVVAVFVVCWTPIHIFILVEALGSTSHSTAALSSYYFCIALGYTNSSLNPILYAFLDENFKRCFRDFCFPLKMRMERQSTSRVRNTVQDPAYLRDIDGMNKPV
Procedure: Plates were incubated for 30 min at a temperature of about 25° C. with shaking.

μ-opioid receptor [4] = molecular target: T1, μ-opioid receptor; assay: biochemical; parameters: purchased Perkin Elmer, Shelton, Conn; host or cells: HEK-293 or CHO; conditions: HEK-293 or CHO cells; for Emax: relative to DAMGO, read-out: GTPγS μ Emax; for EC50: read-out: GTPγS μ EC50
κ-opioid receptor [5] = molecular target: T2, κ-opioid receptor; assay: κ-opioid receptor β-Arr2 activity response, U2OS cells; type: cell-based; parameters: expressed in transfected cells; host or cells: U-2 OS; conditions: U2OS cells; for EC50: read-out: β-Arr2 κ EC50

T1 sequence (P35372 whole entry, species assumed): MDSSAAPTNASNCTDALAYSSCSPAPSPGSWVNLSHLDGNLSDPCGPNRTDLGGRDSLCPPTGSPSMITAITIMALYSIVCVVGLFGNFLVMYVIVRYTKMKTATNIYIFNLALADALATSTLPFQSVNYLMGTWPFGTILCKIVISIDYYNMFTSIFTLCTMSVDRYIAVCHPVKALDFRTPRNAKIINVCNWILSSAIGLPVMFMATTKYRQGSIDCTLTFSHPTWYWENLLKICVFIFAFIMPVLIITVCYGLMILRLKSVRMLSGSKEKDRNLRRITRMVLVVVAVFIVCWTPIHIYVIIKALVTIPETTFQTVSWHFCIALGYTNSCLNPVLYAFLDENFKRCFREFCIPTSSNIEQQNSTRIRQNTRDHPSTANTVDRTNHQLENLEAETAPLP

Compound	Emax (μ-opioid receptor [1])	EC50 (μ-opioid receptor [2])	Emax (μ-opioid receptor [2])	Emax (κ-opioid receptor [3])	EC50 (κ-opioid receptor [3])	Emax (μ-opioid receptor [4])	EC50 (μ-opioid receptor [1])	Emax (κ-opioid receptor [5])	EC50 (μ-opioid receptor [4])	EC50 (κ-opioid receptor [5])
C[C@H]1[C@H]2Cc3ccc(O)cc3[C@]1(CCNS(=O)(=O)C1CC1)CCN2CC1CC1 [Compound 6, N-(2-((2R,6S,11R)-3-(cyclopropyl-methyl)-8-hydroxy-11-methyl-2,3,4,5-tetrahydro-2,6-methanobenzo[d]azocin-6(1H)-yl)ethyl)-cyclopropanesulfonamide]	-0.33 ± 0.67%	0.88 ± 0.095 nM	30.7 ± 0.88%	107 ± 2.65%	0.072 ± 0.013 nM	-0.33 ± 0.67%	–	–	–	–
C[C@H]1[C@H]2Cc3ccc(O)cc3[C@]1(CCOc1cncc(C(=O)O)c1)CCN2C [Compound 52, 5-(2-((2R,6S,11R)-8-hydroxy-3,11-dimethyl-2,3,4,5-tetrahydro-2,6-methanobenzo[d]azocin-6(1H)-yl)ethoxy)nicotinic acid]	6.77 ± 1.13%	68.1 ± 6.57 nM	89 ± 4%	99 ± 1.73%	434 ± 39.1 nM	35 ± 1.53%	403 ± 110 nM	1%	320 ± 46.9 nM	–
C[C@H]1[C@H]2Cc3ccc(O)cc3[C@]1(CCNCCc1ccc(S(N)(=O)=O)cc1)CCN2C [Compound 59, 4-(2-((2-((2R,6R,11R)-8-hydroxy-3,11-dimethyl-2,3,4,5-tetrahydro-2,6-methanobenzo[d]azocin-6(1H)-yl)ethyl)amino)ethyl)benzenesulfonamide]	-1%	85.6 ± 9.67 nM	74 ± 3.51%	112 ± 7.54%	61.2 ± 10 nM	38 ± 4.18%	–	1%	369 ± 50.2 nM	–
C[C@H]1[C@H]2Cc3ccc(O)cc3[C@]1(CCN1CCN(C(c3ccc(F)cc3)c3ccc(F)cc3)CC1)CCN2C [Compound 8, (2R,6R,11R)-6-(2-(4-(bis(4-fluoro-phenyl)methyl)piperazin-1-yl)ethyl)-3,11-dimethyl-1,2,3,4,5,6-hexahydro-2,6-methanobenzo[d]azocin-8-ol]	70.7 ± 6.98%	72.7 ± 4.92 nM	100 ± 3.06%	–	–	47 ± 1.53%	4710 ± 227 nM	–	796 ± 72.2 nM	–
C[C@H]1[C@H]2Cc3ccc(O)cc3[C@]1(CCNC(=O)c1ccc(C(N)=O)cc1)CCN2C [Compound 86, N-(2-((2R,6R,11R)-8-hydroxy-3,11-dimethyl-2,3,4,5-tetrahydro-2,6-methanobenzo[d]azocin-6(1H)-yl)ethyl)terephthalamide]	11.2 ± 0.69%	–	–	–	–	48.2 ± 1.26%	289 ± 91.8 nM	–	252 ± 23.5 nM	–
COc1ccc2c(c1)[C@]1(CCOCc3ccccc3)CCN(C)[C@H](C2)[C@@H]1C [Compound 48, (2R,6S,11R)-6-(2-(benzyloxy)ethyl)-8-methoxy-3,11-dimethyl-1,2,3,4,5,6-hexahydro-2,6-methanobenzo[d]azocine]	27.7 ± 0.88%	313 ± 28 nM	97 ± 2.08%	108 ± 4.51%	104 ± 15.8 nM	53.1 ± 4.36%	4380 ± 627 nM	64.3 ± 9.39%	2240 ± 190 nM	16300 ± 7600 nM
C[C@H]1[C@H]2Cc3ccc(O)cc3[C@]1(CCNS(C)(=O)=O)CCN2CC1CC1 [Compound 3, N-(2-((2R,6S,11R)-3-(cyclopropyl-methyl)-8-hydroxy-11-methyl-2,3,4,5-tetrahydro-2,6-methanobenzo[d]azocin-6(1H)-yl)ethyl)methanesulfonamide]	0%	0.85 ± 0.11 nM	16.7 ± 0.33%	104 ± 2.52%	0.32 ± 0.031 nM	–	–	-0.33 ± 0.67%	–	–
COc1ccc2c(c1)[C@]1(CCNC(=O)[C@H](C)NC(C)=O)CCN(CC3CC3)[C@H](C2)[C@@H]1C [Compound 4, (S)-2-acetamido-N-(2-((2R,6R,11R)-3-(cyclopropylmethyl)-8-methoxy-11-methyl-2,3,4,5-tetrahydro-2,6-methanobenzo[d]azocin-6(1H)-yl)ethyl)propanamide]	1.3 ± 0.77%	522 ± 60.1 nM	80.2 ± 3.3%	97 ± 5.29%	38.2 ± 4.89 nM	0%	–	59.3 ± 4.06%	–	403 ± 59.9 nM
C[C@H]1[C@H]2Cc3ccc(O)cc3[C@]1(CCNC(=O)NS(=O)(=O)c1ccc(F)cc1)CCN2C [Compound 66, 4-fluoro-N-((2-((2R,6R,11R)-8-hydroxy-3,11-dimethyl-2,3,4,5-tetrahydro-2,6-methanobenzo[d]azocin-6(1H)-yl)-ethyl)carbamoyl)benzenesul-fonamide]	15.9 ± 0.72%	–	–	–	–	37.3 ± 0.88%	2290 ± 703 nM	–	174 ± 13.1 nM	–
C[C@H]1[C@H]2Cc3ccc(O)cc3[C@]1(CCN1CCC(N(C3CC3)S(=O)(=O)c3ccc(Cl)cc3)CC1)CCN2C [Compound 58, 4-chloro-N-cyclopropyl-N-(1-(2-((2R,6R,11R)-8-hydroxy-3,11-dimethyl-2,3,4,5-tetrahydro-2,6-methanobenzo-[d]azocin-6(1H)-yl)ethyl)piperidin-4-yl)-benzenesulfonamide]	77.7 ± 7.06%	20.3 ± 1.82 nM	98 ± 2%	60 ± 1%	11 ± 1.59 nM	53.3 ± 2.96%	2140 ± 586 nM	80.3 ± 7.75%	179 ± 12.7 nM	8900 ± 1620 nM
C[C@H]1[C@H]2Cc3ccc(O)cc3[C@]1(CCNC(=O)NCc1ccccc1)CCN2CC1CC1 [Compound 21, 1-benzyl-3-(2-((2R,6R,11R)-3-(cyclopropylmethyl)-8-hydroxy-11-methyl-2,3,4,5-tetrahydro-2,6-methanobenzo[d]azocin-6(1H)-yl)ethyl)urea]	30.1 ± 0.81%	–	–	–	–	54.7 ± 2.63%	0.38 ± 0.11 nM	–	0.28 ± 0.027 nM	–
C[C@H]1[C@H]2Cc3ccc(O)cc3[C@]1(CC(=O)NCCc1ccc(S(N)(=O)=O)cc1)CCN2C [Compound 62, 2-((2R,6S,11R)-8-hydroxy-3,11-dimethyl-2,3,4,5-tetrahydro-2,6-methanobenzo[d]azocin-6(1H)-yl)-N-(4-sulfamoylphenethyl)acetamide]	-1%	172 ± 18.7 nM	49.7 ± 0.88%	35.7 ± 1.67%	1120 ± 53.4 nM	17 ± 1.53%	–	–	538 ± 22.9 nM	–
C[C@H]1[C@H]2Cc3ccc(O)cc3[C@]1(CCNC(=O)CCc1ccccc1)CCN2C [Compound 85, N-(2-((2R,6R,11R)-8-hydroxy-3,11-dimethyl-2,3,4,5-tetrahydro-2,6-methanobenzo[d]azocin-6(1H)-yl)ethyl)-3-phenylpropanamide]	39.8 ± 0.77%	–	–	–	–	69.5 ± 2.23%	6.55 ± 2.88 nM	–	6.51 ± 0.17 nM	–
COc1ccc2c(c1)[C@]1(CCNC(=O)[C@@H]3CCCN3C(C)=O)CCN(CC3CC3)[C@H](C2)[C@@H]1C [Compound 5, (S)-1-acetyl-N-(2-((2R,6R,11R)-3-(cyclopropylmethyl)-8-methoxy-11-methyl-2,3,4,5-tetrahydro-2,6-methanobenzo[d]azocin-6(1H)-yl)ethyl)pyrrolidine-2-carboxamide]	-1%	629 ± 16.8 nM	75.2 ± 1.55%	100 ± 4.58%	63.3 ± 10.2 nM	16.3 ± 1.44%	–	58.7 ± 5.93%	468 ± 122 nM	407 ± 65.5 nM
C[C@H]1[C@H]2Cc3ccc(O)cc3[C@]1(CC(=O)N1CCC(N(C3CC3)S(=O)(=O)c3ccc(Cl)cc3)CC1)CCN2C [Compound 61, 4-chloro-N-cyclopropyl-N-(1-(2-((2R,6S,11R)-8-hydroxy-3,11-dimethyl-2,3,4,5-tetrahydro-2,6-methano-benzo[d]azocin-6(1H)-yl)acetyl)-piperidin-4-yl)benzenesulfonamide]	7.67 ± 0.73%	146 ± 24.8 nM	78.7 ± 0.33%	42.7 ± 2.03%	45.4 ± 6.69 nM	35.7 ± 1.2%	649 ± 180 nM	14.7 ± 1.33%	283 ± 28.8 nM	7290 ± 2060 nM
C[C@H]1[C@H]2Cc3ccc(O)cc3[C@]1(CCNC(=O)c1ccc(F)cc1)CCN2C [Compound 83, 4-Fluoro-N-(2-((2R,6R,11R)-8-hydroxy-3,11-dimethyl-2,3,4,5-tetrahydro-2,6-methanobenzo[d]azocin-6(1H)-yl)ethyl)benzamide]	46.5 ± 1.93%	–	–	–	–	77.2 ± 3.52%	13.8 ± 3.03 nM	–	13.6 ± 3.38 nM	–
C[C@H]1[C@H]2Cc3ccc(O)cc3[C@]1(CCNS(=O)(=O)c1ccc(F)cc1)CCN2C [Compound 69, 4-fluoro-N-(2-((2R,6S,11R)-8-hydroxy-3,11-dimethyl-2,3,4,5-tetrahydro-2,6-methanobenzo[d]azocin-6(1H)-yl)ethyl)-benzenesulfonamide]	14.7 ± 0.88%	–	–	–	–	59.3 ± 1.2%	2.97 ± 0.34 nM	–	5.42 ± 1.11 nM	–
C[C@H]1[C@H]2Cc3ccc(O)cc3[C@]1(CCN1CCC(N(C3CC3)S(=O)(=O)c3ccccc3)CC1)CCN2C [Compound 7, N-cyclopropyl-N-(1-(2-((2R,6R,11R)-8-hydroxy-3,11-dimethyl-2,3,4,5-tetrahydro-2,6-methanobenzo[d]azocin-6(1H)-yl)ethyl)piperidin-4-yl)benzene-sulfonamide]	23.4 ± 1.33%	83.1 ± 1.96 nM	99 ± 1%	–	–	54.5 ± 4.33%	503 ± 116 nM	–	624 ± 65.9 nM	–
C[C@H]1[C@H]2Cc3ccc(O)cc3[C@]1(CCNC(=O)Nc1ccccc1)CCN2C [Compound 68, 1-(2-((2R,6R,11R)-8-hydroxy-3,11-dimethyl-2,3,4,5-tetrahydro-2,6-methano-benzo[d]azocin-6(1H)-yl)ethyl)-3-phenylurea]	72.3 ± 0.88%	–	–	–	–	75.8 ± 2.39%	18.9 ± 1.23 nM	–	28.5 ± 2.07 nM	–
